# Read-outs that look alike come from different tables or passages of the source. Marks after values point to notes of the source that are not given here.
# Assays:
# Streptococcus pyogenes [1] = experiment: MIC-90 of penicillin VK for Streptococcus pyogenes; type: cell-based; settings: where study did not report MIC, assumed equal to MIC determined in Applicants' Phase III trial
# Source text: The information in Table 1 was collected from several studies published in the literature. Information such as drug, regimen, Days Tx and Eradication can be taken directly from the literature articles. Information such as the MIC will often have been determined as part of the study and may be reported in the article, but in many cases it may not have been determined or reported.
# Streptococcus pyogenes [2] = experiment: Daily T>MIC and Total T>MIC calculated from pharmacokinetic model (WinNonlin) plasma profiles
# Procedure: The Daily T>MIC must also be calculated for each different regimen, and at the relevant MIC. This information was not presented in any of the articles and so it was calculated by Applicants. The Daily T>MIC is calculated for each regimen by creating a plasma profile from pharmacokinetic data published in the literature. Prior to creating the plasma profile a pharmacokinetic model is developed from plasma profiles from one or more doses reported in the literature. […] The models are industry standard compartmental models, generated with WinNonlin, a common program used in the pharmaceutical industry for pharmacokinetic analysis and modeling. Once the Daily T>MIC for each regimen has been calculated, the Total T>MIC is calculated by multiplying the Daily T>MIC by the Duration of Therapy (Days Tx in the table). Thus a composite parameter, Total T>MIC, is constructed that includes both factors relevant to eradication of Streptococcus pyogenes by a given regimen. The equation can then be used to determine the Total T>MIC required to achieve eradication rates ≧85% (or any other desired eradication rate).
# Streptococcus pyogenes [3] = settings: Omnicef label, Tack et al, AAC 1998; cited from earlier work
# Streptococcus pyogenes [4] = settings: cited from earlier work
smiles,measurement,setting,value
"CC1(C)S[C@@H]2[C@H](NC(=O)COc3ccccc3)C(=O)N2[C@H]1C(=O)O [Pen VK, penicillin VK]",MIC90,Streptococcus pyogenes [1],0.015 µg/mL
same,Daily T > MIC,"Streptococcus pyogenes [2]; 250 QID, MIC-90 0.015",55.30%
same,Daily T > MIC,"Streptococcus pyogenes [2]; 250 QID, MIC-90 0.03",46.40%
same,Daily T > MIC,"Streptococcus pyogenes [2]; 250 TID, MIC-90 0.015",39.29%
same,Daily T > MIC,"Streptococcus pyogenes [2]; 500 TID, MIC-90 0.015",48.10%
same,Daily T > MIC,"Streptococcus pyogenes [2]; 600 TID, MIC-90 0.015",49.80%
same,Daily T > MIC,"Streptococcus pyogenes [2]; 750 QD, MIC-90 0.015",17.30%
same,Daily T > MIC,"Streptococcus pyogenes [2]; 800 BID, MIC-90 0.015",35.00%
same,MIC-90,Streptococcus pyogenes [3],0.03* μg/mL
same,% Erad,"Streptococcus pyogenes [4]; 250 QID, Days Tx 10, MIC-90 0.03, Omnicef label, Tack et al, AAC 1998",82%
same,% Erad,"Streptococcus pyogenes [4]; 250 QID, Days Tx 10, McCarty 1993",100%
same,% Erad,"Streptococcus pyogenes [4]; 250 QID, Days Tx 10, Mullen 992",85.5%
same,% Erad,"Streptococcus pyogenes [4]; 250 TID, Days Tx 5, Gerber et al, AJDC 1987",92%
same,% Erad,"Streptococcus pyogenes [4]; 250 TID, Days Tx 10, Gerber et al, AJDC 1987",96%
same,% Erad,"Streptococcus pyogenes [4]; 500 TID, Days Tx 0 (spontaneous eradication), Zwart et al. BMJ 2000",7%
same,% Erad,"Streptococcus pyogenes [4]; 500 TID, Days Tx 3, Zwart et al, BMJ 2000",41%
same,% Erad,"Streptococcus pyogenes [4]; 500 TID, Days Tx 7, Zwart et al, BMJ 2000",72%
same,% Erad,"Streptococcus pyogenes [4]; 500 TID, Days Tx 10, Ketek SBA, Norrby et al, Scand J Infect Dis 2001",89%
same,% Erad,"Streptococcus pyogenes [4]; 600 TID, Days Tx 10, Carbon et al, J Antimicrob Chemother 1995",86%
same,% Erad,"Streptococcus pyogenes [4]; 750 QD, Days Tx 10, Gerber et al, AJDC 1989",82%
same,% Erad,"Streptococcus pyogenes [4]; 800 BID, Days Tx 5, Stromberg et al, Scand J Infect Dis 1988",73%
same,% Erad,"Streptococcus pyogenes [4]; 800 BID, Days Tx 10, Stromberg et al, Scand J Infect Dis 1988",94%

# Reference: patent US8299052B2, “Pharmaceutical compositions and methods for improved bacterial eradication” (Shionogi Inc., priority 2006, dated 2012)
